Assay results as given in US20220257552A1, “METHODS OF PRESCREENING AND TREATING BREAST CANCERS WITH SELECTIVE ANDROGEN RECEPTOR MODULATORS” (priority 2021, published 2022).

Legend:
[1] = biological target: AR-LBD (Homo sapiens, UniProt P10275); assay: Competitive radioligand binding with [3H]MIB; details: DHT = 1.0
[2] = biological target: T1, ER-α (Rattus norvegicus, UniProt P06211); assay: ER-α transactivation in HEK-293 cells; assay type: cell-based
T1 construct: expressed in transfected cells
Protocol: Rat GR, MR, PR, ER-α and ER-β were individually cloned into a pCR3.1 vector backbone. Sequencing was performed to verify the absence of any mutations. HEK-293 cells were plated at 90,000 cells per well of a 24 well plate in Dulbecco's Minimal Essential Media supplemented with 5% charcoal-stripped FBS. […] Luciferase assays were performed 48 h after transfection. Transcriptional activation values are represented as firefly luciferase normalized to renilla luciferase.

[3] = tested on: ZR-75-1 breast cancer cells; assay: ZR-75-1 cell proliferation (cell count); assay type: cell-based; details: 6 days, dose response
Protocol: Cells were plated at varying densities in growth medium in 96 well plates. Cells were treated as indicated in the figures and viability measured using sulforhodamine B (SRB) or the number of cells counted using Coulter counter.
Although a few previous reports have shown that MCF-7 cells express AR and respond to AR ligands (Buchanan et al. (2005) Cancer Res 65, 8487-8496), the MCF-7 cell line clone in the study lacks or minimally expresses AR, which is in concordance with other reports (De Amicis et al. (2010) Breast Cancer Res Treat 121, 1-11).

[4] = tested on: metastatic or locally advanced ER+/AR+ breast cancer; assay: Phase 2 trial G200802, 9 mg or 18 mg daily, ER+/AR+ breast cancer; assay type: in vivo, human; details: for ORR / Best overall objective tumor response, CR (patients) / Best overall objective tumor response, PR (patients): post-hoc; for Best overall objective tumor response, CR (patients) / Best overall objective tumor response, PR (patients): all evaluable patients
Protocol: Each dose arm was treated independently, and each assessed for efficacy using Simon's two-stage (optimal) design (Simon R. Optimal two-stage designs for Phase 2 clinical trials. Controlled Clinical Trials 1989; 10: 1-10). Subjects were randomized in a 1:1 fashion to one of the two dose arms.
Randomization was stratified by subjects presenting with bone only metastases and all other subjects, and further by setting of immediately preceding therapy (adjuvant setting or metastatic setting) in order to balance the proportion of subjects with these presenting features in each dose arm.
Thirty-six to eighty-eight (36-88) subjects with centrally confirmed AR+ who received at least one dose of study drug (evaluable subjects) were needed for primary efficacy analysis purposes and were a subset of the full analysis set (FAS). Fifty patients in the 9 mg cohort and 52 patients in the 18 mg cohort met these criteria. […] Other statistical parameters that were part of the sample size calculation are α=0.025 (one-sided) and power=90%. The first stage in each study arm was assessed among the first 18 evaluable subjects. Greater than 3/18 subjects achieved CB (defined as CR, PR, or SD) at week 24, and both arms proceeded to the second stage of recruitment up to a total of 44 evaluable subjects per arm. Otherwise, the arm would have been discontinued for lack of efficacy. Statistical significance, i.e., rejection of the null hypothesis of an unacceptably low CBR of ≤10% in favor of the alternative hypothesis that indicated the higher rate, ≥30%, was more likely, would be declared if at least 9/44 subjects achieved CB at week 24 in that arm.
These patients on the study had measurable disease at baseline and an AR staining prior to entry into the study. The radiographic imaging in this patient population was done every 12 weeks (2.7 months). Therefore, the minimum radiographic progression free survival (rPFS) that could be determined is approximately 2.7 months. 90% of the patients in the study had previously received non-endocrine based chemotherapy. The patients in this study had failed an average of 2 prior treatment lines for metastatic disease (range=0-5). FIG. 43 provides a scatterplot for the patients in this study with regard to the correlation between % AR-positive staining at baseline (% AR staining) and rPFS. […] However, in patients with greater than or equal to 40% AR-positive staining, the rPFS was delayed to variable extents (scatter plot pattern) in many to most cases. A positive correlation between rPFS and % AR staining was seen above the threshold of 40% AR staining. To explore this positive correlation further, several subgroups of AR % staining were defined and analyzed for metrics of efficacy, as shown in Table 14.

[5] = tested on: HCI-13 PDX; assay: HCI-13 (HCI-013) patient-derived xenograft in NSG mice; assay type: in vivo; details: 10 mpk p.o.
Protocol: HCI-013 tumor pieces (1 mm^3) were implanted surgically (one per mouse) under the skin on the flanks of NSG mice. Tumors were allowed to grow and reach approximately 100 mm^3 volume (1*W*W*0.526). […] Tumor volume was measured weekly and represented as % change in tumor volume. Mice were sacrificed, tumors weighed, and stored for further analysis.
All animal protocols were approved by The University of Tennessee Health Science Center (UTHSC) Institutional Animal Care and Use Research Committee. Xenograft experiments were performed as previously published (Narayanan et al. (2014) PLoS One 9, e103202). Briefly, 3 million MCF-7 cells were suspended in 0.05 ml MEM+10% FBS and 0.05 ml Matrigel/nude mouse and were injected subcutaneously. Once the tumor size reached 100-200 mm^3, the animals were randomized and treated orally with the indicated drugs formulated in DMSO:PEG-300 (15:85). HCI-7, HCI-9, and HCI-13 PDXs were gifts kindly donated by Dr. Alana Welm (Huntsman Cancer Institute, Salt Lake City, Utah). HCI PDX tumor fragments (1 mm^3) were surgically implanted under the mammary fat pad in female NOD SCID Gamma (NSG) mice. Tumor volume was measured twice weekly for MCF-7 xenograft and once or twice weekly for HCI PDXs. At the end of the study, animals were sacrificed and tumors were excised, weighed, and stored for various analyses.

T1 sequence (P06211 whole entry): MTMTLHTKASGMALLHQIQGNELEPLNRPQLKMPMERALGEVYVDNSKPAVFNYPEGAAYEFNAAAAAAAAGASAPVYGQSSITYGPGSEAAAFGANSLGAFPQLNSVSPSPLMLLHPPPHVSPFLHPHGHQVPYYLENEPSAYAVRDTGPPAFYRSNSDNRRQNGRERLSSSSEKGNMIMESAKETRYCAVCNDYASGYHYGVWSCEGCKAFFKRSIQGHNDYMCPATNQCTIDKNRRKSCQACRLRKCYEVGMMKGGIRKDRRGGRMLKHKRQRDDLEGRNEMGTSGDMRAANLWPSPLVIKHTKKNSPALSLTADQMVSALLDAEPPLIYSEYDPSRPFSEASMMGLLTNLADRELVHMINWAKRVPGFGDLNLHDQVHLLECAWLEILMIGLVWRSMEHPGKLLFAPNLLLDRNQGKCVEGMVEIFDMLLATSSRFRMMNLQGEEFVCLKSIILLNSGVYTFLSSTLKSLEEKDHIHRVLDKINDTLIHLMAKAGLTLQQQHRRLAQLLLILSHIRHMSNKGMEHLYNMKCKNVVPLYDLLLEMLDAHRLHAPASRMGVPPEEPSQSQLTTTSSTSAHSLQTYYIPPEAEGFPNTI
AR-LBD, sequence (P10275 669-900 limits assumed): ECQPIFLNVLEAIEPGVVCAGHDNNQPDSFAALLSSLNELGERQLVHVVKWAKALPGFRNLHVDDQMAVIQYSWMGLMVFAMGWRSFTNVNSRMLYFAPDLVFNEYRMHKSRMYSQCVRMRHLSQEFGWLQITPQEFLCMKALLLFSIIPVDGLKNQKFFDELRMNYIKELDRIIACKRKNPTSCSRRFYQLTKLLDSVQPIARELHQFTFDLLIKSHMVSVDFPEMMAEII

## C[C@](O)(COc1ccc(C#N)cc1)C(=O)Nc1ccc(C#N)c(Cl)c1 [Formula VIII, (S)—N-(3-chloro-4-cyanophenyl)-3-(4-cyanophenoxy)-2-hydroxy-2-methylpropanamide]
[1]
  relative binding affinities (RBAs) for AR: 0.314
[2]; co-incubation
  17β-estradiol-induced ER-α activity, antagonist mode: failed to alter
[2]; highest tested concentration 1 μM
  ERα-mediated transactivation, agonist mode: failed to activate

## C[C@](O)(COc1ccc(C#N)cc1)C(=O)Nc1ccc(C#N)c(C(F)(F)F)c1 [Formula IX, (S)—N-(4-Cyano-3-(trifluoromethyl)phenyl)-3-(4-cyanophenoxy)-2-hydroxy-2-methylpropanamide]
[3]
  proliferation: significantly reduced dose dependently
[4]; 9 mg
  responders with duration of response ≥6 months: 67%
  responders with duration of response ≥12 months: 25%
  Best overall objective tumor response, CR (patients): 3
  Best overall objective tumor response, PR (patients): 8
[4]; 9 mg and 18 mg cohorts, p=0.002
  Quality of life assessments: significant improvement from baseline
[4]; 9 mg and 18 mg doses
  tolerability: well tolerated
[4]; 9 mg arm, 3 patients who failed palbociclib
  patients with complete response: 33%
[4]; 9 mg group
  Median duration of clinical benefit: not reached
[4]; 9 mg, AR nuclei staining <40%
  rPFS: 2.72 months
[4]; 9 mg, AR nuclei staining <40% (0/22)
  ORR: 0%
[4]; 9 mg, AR nuclei staining ≥40%
  rPFS: 5.47 months
[4]; 9 mg, AR nuclei staining ≥40% (12/25)
  ORR: 48%
[4]; 9 mg, patients with objective tumor response, range 2.73 to >27.83
  median duration of response: 8.18 months
[4]; 18 mg arm, 6 patients who failed palbociclib
  response rate: 33%
[4]; 18 mg group (11 months-16.5 months)
  Median duration of clinical benefit: 14.1 months
[4]; 18 mg
  Best overall objective tumor response, CR (patients): 1
  Best overall objective tumor response, PR (patients): 5
[4]; progressed on estrogen blocking agents and CDK 4/6 inhibitor, 4 patients
  objective response in ≥60% AR subgroup: 75%
[4]; progressed on estrogen blocking agents and CDK 4/6 inhibitor, AR ≥40% (7 patients)
  patients with an objective response: 3 patients
[5]
  tumor weight at sacrifice: almost complete inhibition of tumor
